Results: US10392385B2, “N-((1-phenyl-9H-pyrido[3,4-b]indol-3-yl)methyl)cinnamamides as potential anticancer agents and preparation thereof” (Council of Scientific & Industrial Research, priority 2016, dated 2019)

How the values were obtained:
MCF-7 = settings: breast cancer; 48 h of drug treatment; average of three experiments; cited from earlier work
A549 = settings: lung cancer; 48 h of drug treatment; average of three experiments; cited from earlier work
HeLa = settings: cervical cancer; 48 h of drug treatment; average of three experiments; cited from earlier work
[1] = system: A549, MCF-7, B16, HeLa and NIH3T3 cell lines; assay: MTT cytotoxicity assay, all the cell lines tested; assay type: cell-based; settings: summary over A549, MCF-7, B16, HeLa, read-out: IC50 against all the cell lines tested
Source text: (§1) The N-((1-phenyl-9H-pyrido[3,4-b]indol-3-yl)methyl)cinnamamides (1a-h, 2a-h and 3a-h) have been tested against five human cancer cell lines such as A549 (lung cancer), MCF-7 (breast cancer), B16 (melanoma), HeLa (cervical cancer) and NIH3T3 (mouse embryonic fibroblast cancer). All the cancer cell lines (HeLa, A549, MCF-7 and B16) were procured from National Centre for Cell Sciences (NCCS, Pune, India) and NIH 3T3 cell line was obtained from American Type Culture Collection (Rockville, Md., USA). Stock cells were cultured in DMEM supplemented with 10% Fetal Bovine Serum (FBS), in an humidified atmosphere of 5% CO2 at 37° C. until they are 80% confluent. To study the cytotoxicity of the compounds, after 80% confluence, cells were trypsinized with 0.1% trypsin-EDTA and harvested by centrifugation at 500×g. […] The cell viability was determined by measuring the ability of cells to transform MTT to a purple coloured formazan dye. The absorbance of samples at 570 nm was measured using a UV-Visible spectrophotometer. Percentage of viable cells was calculated by using the formula given below.
(§2) Where the OD570 (sample) corresponds to absorbance obtained from the wells treated with compound and OD570 (control) represents the absorbance from the wells in which no compound was added.

HeLa (cervical cancer) = assay: MTT cytotoxicity assay, HeLa; assay type: cell-based; settings: Homo sapiens, of drug treatment (footnote), average of three experiments
Source text: as §1, with “500×g. Serial dilutions of cells were made from 1×10^6 to 1×10^3 cells per mL The cells were seeded in triplicate in a 96 well plate. […].” for “500×g.”
(§3) Where the OD570 (sample) corresponds to absorbance obtained from the wells treated with compound and OD570 (control) represents the absorbance from the wells in which no compound was added. For these compounds results are expressed as half maximal inhibitory concentration (IC50) values and the anticancer activity data of 1a-h, 2a-h and 3a-h are shown in Table 2.

B16 (melanoma) = assay: MTT cytotoxicity assay, B16; assay type: cell-based; settings: 48 h of drug treatment (footnote), average of three experiments
Source text: as §1, with “500×g. Serial dilutions of cells were made from 1×10^6 to 1×10^3 cells per mL The cells were seeded in triplicate in a 96 well plate. […].” for “500×g.”
as §3

[2] = system: NIH3T3 (mouse embryonic fibroblast cell line); assay: MTT cytotoxicity assay, NIH3T3; assay type: cell-based; settings: 48 h of drug treatment (footnote), average of three experiments
Source text: as §1, with “500×g. Serial dilutions of cells were made from 1×10^6 to 1×10^3 cells per mL The cells were seeded in triplicate in a 96 well plate. […].” for “500×g.”
as §3

MCF-7 (breast cancer) = assay: MTT cytotoxicity assay, MCF-7; assay type: cell-based; settings: Homo sapiens, MCF7, average of three experiments
Source text: as §1, with “500×g. Serial dilutions of cells were made from 1×10^6 to 1×10^3 cells per mL The cells were seeded in triplicate in a 96 well plate. […].” for “500×g.”
as §3

A549 (lung cancer) = assay: MTT cytotoxicity assay, A549; assay type: cell-based; settings: Homo sapiens, 48 h of drug treatment (footnote), average of three experiments
Source text: as §1, with “500×g. Serial dilutions of cells were made from 1×10^6 to 1×10^3 cells per mL The cells were seeded in triplicate in a 96 well plate. […].” for “500×g.”
as §2

SMILES	IC50 (MCF-7)	IC50 (A549)	IC50 (HeLa)	IC50 [1]	IC50 (HeLa (cervical cancer))	IC50 (B16 (melanoma))	IC50 [2]	IC50 (MCF-7 (breast cancer))	IC50 (A549 (lung cancer))	melting point
NCc1cc2c([nH]c3ccccc32)c(-c2ccc(C(F)(F)F)cc2)n1 [Compound 21e]	12000 nM	15800 nM	15800 nM							
COc1cccc2c1C(=O)c1c(O)c3c(c(O)c1C2=O)C[C@@](O)(C(=O)CO)C[C@@H]3O[C@H]1C[C@H](N)[C@H](O)[C@H](C)O1 [Doxorubicin, reference compound]				> 500 nM	780 ± 0.5 nM	670 ± 0.7 nM	1720 ± 0.8 nM	580 ± 0.2 nM		
COc1cc(-c2nc(CN)cc3c2[nH]c2ccccc23)cc(OC)c1OC [Compound 21b, (1-(3,4,5-trimethoxyphenyl)-9H-pyrido[3,4-b]indol-3-yl)methanamine]	18600 nM	15100 nM	21700 nM							
COc1ccc(-c2nc(CN)cc3c2[nH]c2ccccc23)cc1 [Compound 21c, (1-(4-methoxyphenyl)-9H-pyrido[3,4-b]indol-3-yl)methanamine]	18900 nM	17800 nM	18600 nM							
COc1cc(/C=C/C(=O)NCc2cc3c([nH]c4ccccc43)c(-c3cccc(F)c3)n2)cc(OC)c1OC [Compound 1a, (E)-N-((1-(3-fluorophenyl)-9H-pyrido[3,4-b]indol-3-yl)methyl)-3-(3,4,5-trimethoxyphenyl)acrylamide]					23 ± 0.7 nM	19.8 ± 0.6 nM	36 ± 1.3 nM	16.2 ± 1.5 nM	17.9 ± 0.6 nM	148 to 150 °C
COc1ccc(-c2nc(CNC(=O)/C=C/c3ccc(O)c(OC)c3)cc3c2[nH]c2ccccc23)cc1 [Compound 3g, (E)-3-(4-hydroxy-3-methoxyphenyl)-N-((1-(4-methoxyphenyl)-9H-pyrido[3,4-b]indol-3-yl)methyl)acrylamide]					24.87 ± 0.2 nM	19.8 ± 0.5 nM	39.9 ± 1.6 nM	17.2 ± 0.5 nM	21.2 ± 1.5 nM	215 to 220 °C
COc1cc(-c2nc(CNC(=O)/C=C/c3ccc(F)cc3)cc3c2[nH]c2ccccc23)cc(OC)c1OC [Compound 2c, (E)-3-(4-fluorophenyl)-N-((1-(3,4,5-trimethoxyphenyl)-9H-pyrido[3,4-b]indol-3-yl)methyl)acrylamide]					20 ± 0.5 nM	17.2 ± 0.3 nM	43 ± 1.1 nM	16.4 ± 0.8 nM	18.7 ± 0.7 nM	214 to 218 °C
O=C(/C=C/c1ccc(Cl)c(Cl)c1)NCc1cc2c([nH]c3ccccc32)c(-c2cccc(F)c2)n1 [Compound 1b, (E)-3-(3,4-dichlorophenyl)-N-((1-(3-fluorophenyl)-9H-pyrido[3,4-b]indol-3-yl)methyl)acrylamide]					24.9 ± 0.4 nM	18.9 ± 0.4 nM	39 ± 1.1 nM	17 ± 1.2 nM	18 ± 0.8 nM	255 to 258 °C
